Laboratory results: ChEMBL document CHEMBL1145293, “Synthesis and SAR of GlyT1 inhibitors derived from a series of N-((4-(morpholine-4-carbonyl)-1-(propylsulfonyl)piperidin-4-yl)methyl)benzamides” (Bioorg Med Chem Lett, 2006)
≈ marks a conversion by molar mass, not a printed value.

Tests used:
[1] = Aqueous solubility of the compound; format: physicochemical
Caco-2 = experiment: Ratio of permeability from basolateral to apical over apical to basolateral side of Caco-2 cell expressing human p-glycoprotein; format: ADME, cell-based
[2] = Apparent permeability in Caco-2 cells; format: ADME, cell-based; details: human
[3] = target: T1, Sodium- and chloride-dependent taurine transporter (Homo sapiens, UniProt P31641); experiment: Inhibition of human TauT
T1 sequence (P31641 whole entry): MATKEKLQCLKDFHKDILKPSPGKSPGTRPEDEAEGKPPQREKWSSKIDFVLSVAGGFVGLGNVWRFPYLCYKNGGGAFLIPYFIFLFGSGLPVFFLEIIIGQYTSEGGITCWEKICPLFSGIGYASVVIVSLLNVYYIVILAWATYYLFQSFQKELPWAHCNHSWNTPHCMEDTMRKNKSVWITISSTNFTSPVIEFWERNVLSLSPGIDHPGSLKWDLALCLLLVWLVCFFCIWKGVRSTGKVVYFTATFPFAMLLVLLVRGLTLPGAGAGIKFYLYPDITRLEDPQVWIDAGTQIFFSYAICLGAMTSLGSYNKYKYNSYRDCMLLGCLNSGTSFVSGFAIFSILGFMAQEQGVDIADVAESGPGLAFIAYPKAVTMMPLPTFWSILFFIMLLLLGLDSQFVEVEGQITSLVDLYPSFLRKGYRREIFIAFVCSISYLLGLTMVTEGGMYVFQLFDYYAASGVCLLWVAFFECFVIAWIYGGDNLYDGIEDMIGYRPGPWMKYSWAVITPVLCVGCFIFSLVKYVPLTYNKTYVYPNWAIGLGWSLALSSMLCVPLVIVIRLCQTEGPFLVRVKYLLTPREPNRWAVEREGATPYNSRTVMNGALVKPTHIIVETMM

[4] = target: T2, Sodium- and chloride-dependent glycine transporter 1 (Homo sapiens, UniProt P48067); experiment: Inhibition of human GlyT1
T2 sequence (P48067 whole entry): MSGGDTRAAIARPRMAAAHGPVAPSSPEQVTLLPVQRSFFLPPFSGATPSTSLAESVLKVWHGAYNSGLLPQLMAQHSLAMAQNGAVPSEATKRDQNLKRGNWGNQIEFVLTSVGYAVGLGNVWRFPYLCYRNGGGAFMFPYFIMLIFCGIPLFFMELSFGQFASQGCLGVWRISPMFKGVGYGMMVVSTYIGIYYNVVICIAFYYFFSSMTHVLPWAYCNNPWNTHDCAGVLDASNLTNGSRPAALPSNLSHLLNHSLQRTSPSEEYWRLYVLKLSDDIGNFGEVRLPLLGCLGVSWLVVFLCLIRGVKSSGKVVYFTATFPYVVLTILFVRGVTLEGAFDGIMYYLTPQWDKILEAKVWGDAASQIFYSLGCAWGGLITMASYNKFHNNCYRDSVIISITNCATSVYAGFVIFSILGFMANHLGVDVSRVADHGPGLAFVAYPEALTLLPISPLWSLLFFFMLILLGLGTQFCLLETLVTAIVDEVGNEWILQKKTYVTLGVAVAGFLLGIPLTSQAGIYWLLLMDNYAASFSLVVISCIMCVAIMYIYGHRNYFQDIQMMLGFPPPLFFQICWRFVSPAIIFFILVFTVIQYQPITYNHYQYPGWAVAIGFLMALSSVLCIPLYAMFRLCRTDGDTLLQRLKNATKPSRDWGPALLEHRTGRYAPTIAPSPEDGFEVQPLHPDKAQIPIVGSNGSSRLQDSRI

[5] = Partition coefficient, log P of the compound; format: physicochemical; details: octanol/water
[6] = Half life in rat; format: ADME, organism-based; details: in vivo
Cytochrome P450 3A4 = Cytochrome P450 3A4 (Homo sapiens, UniProt P08684); experiment: Inhibition of CYP3A4; format: ADME
Cytochrome P450 3A4, sequence (P08684 whole entry): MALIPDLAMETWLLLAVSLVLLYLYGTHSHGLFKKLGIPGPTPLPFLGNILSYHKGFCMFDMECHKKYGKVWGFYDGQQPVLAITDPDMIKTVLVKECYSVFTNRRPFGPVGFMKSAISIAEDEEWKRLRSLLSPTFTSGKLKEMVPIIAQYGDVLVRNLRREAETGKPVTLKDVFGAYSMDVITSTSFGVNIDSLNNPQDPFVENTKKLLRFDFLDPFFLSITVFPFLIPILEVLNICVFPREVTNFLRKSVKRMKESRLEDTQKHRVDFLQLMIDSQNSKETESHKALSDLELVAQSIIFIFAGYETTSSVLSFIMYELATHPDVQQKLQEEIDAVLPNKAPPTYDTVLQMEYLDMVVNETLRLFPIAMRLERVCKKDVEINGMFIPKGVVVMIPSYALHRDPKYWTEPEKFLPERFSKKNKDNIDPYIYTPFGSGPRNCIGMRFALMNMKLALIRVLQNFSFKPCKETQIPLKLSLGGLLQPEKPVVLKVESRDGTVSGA

[7] = target: T3, Sodium- and chloride-dependent glycine transporter 1 (Mus musculus, UniProt P28571); experiment: Inhibition of mouse GlyT1
T3 sequence (P28571 whole entry): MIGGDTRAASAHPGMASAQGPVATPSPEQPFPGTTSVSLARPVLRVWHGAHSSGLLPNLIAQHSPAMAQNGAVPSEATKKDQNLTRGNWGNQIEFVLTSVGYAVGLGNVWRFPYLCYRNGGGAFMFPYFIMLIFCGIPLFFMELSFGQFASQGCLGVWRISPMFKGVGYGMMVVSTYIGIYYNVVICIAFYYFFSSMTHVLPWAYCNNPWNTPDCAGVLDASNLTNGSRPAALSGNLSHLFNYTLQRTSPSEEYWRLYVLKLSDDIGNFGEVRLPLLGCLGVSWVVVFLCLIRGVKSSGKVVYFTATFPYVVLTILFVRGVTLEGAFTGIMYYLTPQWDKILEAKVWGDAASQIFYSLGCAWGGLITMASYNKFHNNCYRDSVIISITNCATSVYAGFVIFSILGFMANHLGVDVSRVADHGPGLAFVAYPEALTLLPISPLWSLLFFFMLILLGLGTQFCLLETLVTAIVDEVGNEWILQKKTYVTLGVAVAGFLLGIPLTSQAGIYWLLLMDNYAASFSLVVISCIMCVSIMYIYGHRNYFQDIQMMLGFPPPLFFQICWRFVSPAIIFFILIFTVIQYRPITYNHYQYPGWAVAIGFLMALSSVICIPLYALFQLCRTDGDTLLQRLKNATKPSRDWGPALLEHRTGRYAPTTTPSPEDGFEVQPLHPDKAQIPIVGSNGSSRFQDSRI

[8] = Clearance in rat; format: ADME, organism-based; details: in vivo
Cytochrome P450 2D6 = Cytochrome P450 2D6 (Homo sapiens, UniProt P10635); experiment: Inhibition of CYP2D6; format: ADME
Cytochrome P450 2D6, sequence (P10635 whole entry): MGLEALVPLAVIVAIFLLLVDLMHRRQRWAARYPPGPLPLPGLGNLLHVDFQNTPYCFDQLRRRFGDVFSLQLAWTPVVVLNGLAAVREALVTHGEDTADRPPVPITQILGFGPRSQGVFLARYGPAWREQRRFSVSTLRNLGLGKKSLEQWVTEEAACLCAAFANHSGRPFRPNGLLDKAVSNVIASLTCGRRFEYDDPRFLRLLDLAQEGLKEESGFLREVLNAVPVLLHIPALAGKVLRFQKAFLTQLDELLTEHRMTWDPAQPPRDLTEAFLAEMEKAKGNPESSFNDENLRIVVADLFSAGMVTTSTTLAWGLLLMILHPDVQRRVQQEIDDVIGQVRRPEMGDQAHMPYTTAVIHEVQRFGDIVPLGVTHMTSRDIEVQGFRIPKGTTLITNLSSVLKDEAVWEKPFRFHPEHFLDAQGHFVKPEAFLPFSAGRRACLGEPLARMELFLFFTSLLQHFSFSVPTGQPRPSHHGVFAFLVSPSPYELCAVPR

Cytochrome P450 2C9 = Cytochrome P450 2C9 (Homo sapiens, UniProt P11712); experiment: Inhibition of CYP2C9; format: ADME
Cytochrome P450 2C9, sequence (P11712 whole entry): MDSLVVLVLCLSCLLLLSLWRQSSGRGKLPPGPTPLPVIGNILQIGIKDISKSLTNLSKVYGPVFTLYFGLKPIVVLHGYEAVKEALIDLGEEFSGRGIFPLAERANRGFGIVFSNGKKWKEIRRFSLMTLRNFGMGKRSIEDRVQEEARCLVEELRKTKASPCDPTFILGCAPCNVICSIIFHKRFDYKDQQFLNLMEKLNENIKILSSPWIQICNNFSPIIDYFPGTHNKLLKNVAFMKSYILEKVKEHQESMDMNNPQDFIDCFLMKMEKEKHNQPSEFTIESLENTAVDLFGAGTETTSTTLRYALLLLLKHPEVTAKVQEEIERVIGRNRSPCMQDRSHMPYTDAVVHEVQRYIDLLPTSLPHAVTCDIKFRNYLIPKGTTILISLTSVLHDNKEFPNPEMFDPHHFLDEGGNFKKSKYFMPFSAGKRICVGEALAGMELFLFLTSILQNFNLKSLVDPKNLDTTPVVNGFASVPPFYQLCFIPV

[9] = target: T4, Sodium- and chloride-dependent glycine transporter 1 (Rattus norvegicus, UniProt P28572); experiment: Inhibition of rat GlyT1
T4 sequence (P28572 whole entry): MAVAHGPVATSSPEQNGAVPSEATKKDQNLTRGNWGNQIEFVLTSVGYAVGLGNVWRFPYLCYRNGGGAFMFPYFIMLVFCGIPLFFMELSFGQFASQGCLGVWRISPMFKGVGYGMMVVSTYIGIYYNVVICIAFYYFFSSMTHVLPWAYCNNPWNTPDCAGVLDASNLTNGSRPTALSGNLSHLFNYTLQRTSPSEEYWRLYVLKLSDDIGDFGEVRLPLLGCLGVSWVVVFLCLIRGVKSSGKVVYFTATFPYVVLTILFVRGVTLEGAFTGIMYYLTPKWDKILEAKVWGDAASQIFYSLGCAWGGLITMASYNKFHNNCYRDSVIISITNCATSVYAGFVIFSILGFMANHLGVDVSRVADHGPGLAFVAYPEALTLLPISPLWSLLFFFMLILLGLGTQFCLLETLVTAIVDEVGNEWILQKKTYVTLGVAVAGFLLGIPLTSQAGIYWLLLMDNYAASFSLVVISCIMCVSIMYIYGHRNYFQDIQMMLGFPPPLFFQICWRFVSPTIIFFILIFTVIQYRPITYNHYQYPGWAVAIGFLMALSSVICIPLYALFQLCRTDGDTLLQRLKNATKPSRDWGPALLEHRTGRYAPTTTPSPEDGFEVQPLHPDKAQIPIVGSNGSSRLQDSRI

Row | solubility [1] | Ratio (Caco-2) | Papp [2] | IC50 [3] | IC50 [4] | logP [5] | half-life [6] | Activity (Cytochrome P450 3A4) | IC50 [7] | clearance [8] | Activity (Cytochrome P450 2D6) | Activity (Cytochrome P450 2C9) | IC50 [9] | SMILES
1 | 10000 µg/mL (≈ 21.2 mM) | 10.6 | > 22 ×10⁻⁶ cm/s | > 30000 nM | 9.7 nM | < 1.4 | 18 min | Not Active | 95.3 nM | 18 mL/min/kg | Not Active | Not Active | 18.3 nM | CCCS(=O)(=O)N1CCC(CNC(=O)c2ccccc2Cl)(C(=O)N2CCOCC2)CC1
2 | 10000 µg/mL (≈ 19.7 mM) | 10.6 | > 22 ×10⁻⁶ cm/s | > 30000 nM | 8.4 nM | < 1.4 | 18 min | Not Active | 42.8 nM | 18 mL/min/kg | Not Active | Not Active | 19.7 nM | CCCS(=O)(=O)N1CCC(CNC(=O)c2c(F)ccc(Cl)c2F)(C(=O)N2CCOCC2)CC1
3 | 10000 µg/mL (≈ 20.4 mM) | 10.6 | > 22 ×10⁻⁶ cm/s | > 30000 nM | 12.6 nM | < 1.4 | 18 min | Not Active | 28.5 nM | 18 mL/min/kg | Not Active | Not Active | 10.1 nM | CCCS(=O)(=O)N1CCC(CNC(=O)c2ccc(F)cc2Cl)(C(=O)N2CCOCC2)CC1
4 | 10000 µg/mL (≈ 19.1 mM) | 10.6 | > 22 ×10⁻⁶ cm/s | > 30000 nM | 6.3 nM | < 1.4 | 18 min | Not Active | 19.4 nM | 18 mL/min/kg | Not Active | Not Active | 7.4 nM | CCCS(=O)(=O)N1CCC(CNC(=O)c2cc(F)c(Cl)cc2Cl)(C(=O)N2CCOCC2)CC1
5 | 10000 µg/mL (≈ 20.4 mM) | 10.6 | > 22 ×10⁻⁶ cm/s | > 30000 nM | 12.5 nM | < 1.4 | 18 min | Not Active | 57.3 nM | 18 mL/min/kg | Not Active | Not Active | 22.1 nM | CCCS(=O)(=O)N1CCC(CNC(=O)c2c(F)cccc2Cl)(C(=O)N2CCOCC2)CC1
6 | 18000 µg/mL (≈ 35.5 mM) | 17.9 | 23.6 ×10⁻⁶ cm/s | > 30000 nM | 2.4 nM | 1.4 | 22.2 min | Not Active | 7.6 nM | 20.5 mL/min/kg | Not Active | Not Active | 3.2 nM | CCCS(=O)(=O)N1CCC(CNC(=O)c2ccc(Cl)cc2Cl)(C(=O)N2CCOCC2)CC1
